Consider one compound from US11072634B2, “Inhibitors of transglutaminases” (Zedira GmbH, priority 2016, dated 2021).

Where only a bound is given, the exact number is not on record here.

Assay [1] deals with T1, TG2 (Homo sapiens, UniProt P21980).
T1 sequence (P21980 1-687): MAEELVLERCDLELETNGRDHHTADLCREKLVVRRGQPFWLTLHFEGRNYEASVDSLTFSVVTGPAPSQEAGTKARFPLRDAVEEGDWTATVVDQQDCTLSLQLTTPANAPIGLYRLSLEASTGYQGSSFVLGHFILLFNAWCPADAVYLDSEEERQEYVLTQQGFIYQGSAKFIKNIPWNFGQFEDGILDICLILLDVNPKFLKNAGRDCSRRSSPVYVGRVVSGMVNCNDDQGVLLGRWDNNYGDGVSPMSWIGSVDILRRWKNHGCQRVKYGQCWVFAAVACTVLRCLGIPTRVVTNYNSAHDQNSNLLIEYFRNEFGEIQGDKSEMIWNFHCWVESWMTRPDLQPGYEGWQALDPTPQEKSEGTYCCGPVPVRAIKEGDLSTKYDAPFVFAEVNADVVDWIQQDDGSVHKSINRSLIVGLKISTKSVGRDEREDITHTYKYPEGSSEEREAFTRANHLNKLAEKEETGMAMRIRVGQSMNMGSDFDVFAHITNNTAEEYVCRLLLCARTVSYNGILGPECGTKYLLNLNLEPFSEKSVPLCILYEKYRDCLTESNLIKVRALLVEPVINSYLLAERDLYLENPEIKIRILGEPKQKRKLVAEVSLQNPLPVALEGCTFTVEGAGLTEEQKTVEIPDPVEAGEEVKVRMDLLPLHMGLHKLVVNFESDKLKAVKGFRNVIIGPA
The experiment in a line: Transglutaminase activity of homogenates of LX-2 cells. It is filed as cell-based. The settings on record: LX-2, 100 μM, 12 days; read-out: Transglutaminase activity, of the inhibitor free control. How it is done:
A) Transglutaminase activity of homogenates from LX-2-cells grown in standard plastic 6-well plates in the presence of 0-200 μM E22 determined by TG2-selective Tissue Transglutaminase Pico-Assay Kit (#M003, Zedira, Darmstadt, Germany) according to the manufacturer's instructions.
Human hepatic stellate cell line LX-2 was cultured on standard plastic 6 well plates in Dulbecco's Modified Eagle's Medium containing 100 μg/mL streptomycin, 100 units/ml penicillin, 2 mM glutamine, and 10% (v/v) fetal calf serum. E22 was added to a concentration of 0 μM, 100 μM and 200 μM. Cells were grown at 37° C. and 5% CO2 humidified atmosphere. Medium was exchanged every two days.

The test system of assay [2] is BEAS-2B cells. Briefly: Extracellular matrix protein deposition of LPS-stimulated BEAS-2B cells. The conditions noted are these: 0-200 μM. The class given is cell-based, human. As to the method: B) Extracellular matrix protein deposition of homogenates from BEAS-2B-cell grown in the presence of 0-200 μM E22 and stimulated with LPS measured by the DC-protein-assay (BioRad, #5000111).
(§1) Extracellular matrix deposition is a hallmark in pulmonary fibrosis. The BEAS-2B cell line is derived from normal human bronchial epithelium.
(§2) BEAS-2B cells were grown at 37° C. and 5% CO2 in 25 mM HEPES-buffered M199-medium (Merck, Darmstadt) containing 10% FBS, […], 2 mM glutamine, 100 U/ml penicillin (supplemented with […] apotransferrin, 20 ng/ml human epidermal growth factor (EGF), […] insulin, and 0.361 mg/ml hydrocortisone). For the induction of airway fibrosis by epithelial-to-mesenchymal transition (EMT), cells were seeded at 80% confluence on six-well plates. After one day cultivation 4 μg/mL LPS as well as 0 μM, 100 μM or 200 μM E22 were added and then incubated for further 72 h.

The target in assay [3] is T1, TG2. Briefly: Transglutaminase activity of homogenates of LPS-stimulated BEAS-2B cells. The class given is cell-based. The settings on record: 0-200 μM. How it is done: A) Transglutaminase activity of homogenates from BEAS-2B-cell grown in the presence of 0-200 μM E22 and stimulated with LPS determined by TG2-selective Tissue Transglutaminase Pico-Assay Kit (#M003, Zedira, Darmstadt, Germany) according to the manufacturer's instructions.
as §1, §2

`CCCCCNC(=O)C(=O)CC[C@H](NC(=O)[C@@H]1CCCN1C(C)=O)C(=O)Nc1cccn(CC(=O)NCC(CC)CC)c1=O` [Compound E22, (S)-2-((S)-1-acetylpyrrolidine-2-carboxamido)-N1-(1-(2-(2-ethylbutylamino)-2-oxoethyl)-2-oxo-1,2-dihydropyridin-3-yl)-5-oxo-N6-pentylhexanediamide]: the remaining activity at 100 µM in assay [1] is < 5%. The “deposition of ECM-proteins” value in assay [2] is on record as “significantly reduced, also in a dose dependent manner”. The Transglutaminase activity entry in assay [3] was “dose dependent reduction”.
